pIC50: −log10 of the molar value. The source made the active and inactive calls. The calls are words filed in the database; no cut-off is given here.

Series [1] addresses T1, Serine/threonine-protein kinase 4 (Homo sapiens) (UniProt Q13043).
T1 sequence (whole entry): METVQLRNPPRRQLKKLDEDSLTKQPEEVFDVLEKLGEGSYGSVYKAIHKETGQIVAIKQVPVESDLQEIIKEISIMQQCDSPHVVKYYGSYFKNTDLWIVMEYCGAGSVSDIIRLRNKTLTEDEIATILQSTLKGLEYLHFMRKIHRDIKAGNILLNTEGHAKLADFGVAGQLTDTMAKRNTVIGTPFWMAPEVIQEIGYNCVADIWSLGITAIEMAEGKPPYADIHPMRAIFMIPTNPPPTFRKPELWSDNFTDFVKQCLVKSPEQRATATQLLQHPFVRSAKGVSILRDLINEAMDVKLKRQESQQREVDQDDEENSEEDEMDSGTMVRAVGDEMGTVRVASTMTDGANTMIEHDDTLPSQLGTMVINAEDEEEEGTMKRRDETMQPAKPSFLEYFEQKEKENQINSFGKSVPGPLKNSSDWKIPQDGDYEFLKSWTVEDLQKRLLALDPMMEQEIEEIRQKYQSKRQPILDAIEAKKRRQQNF
Nature of the series: Binding affinity to recombinant MST1 (unknown origin) assessed as stabilization by measuring change in melting temperature at 10 uM by SYPRO orange dye based differential scanning fluorimetry assay.

Series [2] has as its target Serine/threonine-protein kinase 24 (Homo sapiens) (UniProt Q9Y6E0). Nature of the series: Binding affinity to recombinant MST3 (unknown origin) assessed as stabilization by measuring change in melting temperature at 10 uM by SYPRO orange dye based differential scanning fluorimetry assay. (In general: In DSF a fluorescence change marks the thermal transition of the protein.)

Series [3] has as its target T2, Mitogen-activated protein kinase 8 (Homo sapiens, UniProt P45983). Nature of the series: Binding affinity to recombinant JNK1 (unknown origin) assessed as stabilization by measuring change in melting temperature at 10 uM by SYPRO orange dye based differential scanning fluorimetry assay.
Series [4] addresses Ephrin type-B receptor 3 (Homo sapiens) (UniProt P54753). The experiment in a line: Binding affinity to recombinant EPHB3 (unknown origin) assessed as stabilization by measuring change in melting temperature at 10 uM by SYPRO orange dye based differential scanning fluorimetry assay.
Series [5] deals with Tyrosine-protein kinase ABL1 (Homo sapiens, UniProt P00519). Nature of the series: Inhibition of full length NanoLuc fused ABL1 (unknown origin) transfected in HEK293T cells using NanoBRET NanoGlo substrate incubated for 2 hrs in presence of tracer by NanoBRET assay. The series is classed as cell-based. On the technique in general: BRET reads energy transfer from a luciferase to a nearby fluorophore.

The target of series [6] is T2, Mitogen-activated protein kinase 8. The experiment in a line: Inhibition of full length NanoLuc fused JNK1 (unknown origin) transfected in HEK293T cells using NanoBRET NanoGlo substrate incubated for 2 hrs in presence of tracer by NanoBRET assay. Type of series: cell-based.
Series [7] deals with Serine/threonine-protein kinase SIK2 (Homo sapiens) (UniProt Q9H0K1). The experiment in a line: Inhibition of recombinant human GST-tagged SIK2 assessed as downregulation of SIK2 phosphorylation at Ser358 incubated for 30 mins by Western blotting analysis. (In general: A western blot detects proteins with antibodies after separation by electrophoresis.)
For series [8], the system named is SK-OV-3. The experiment in a line: Induction of cell cycle arrest in human SK-OV-3 cells assessed as accumulation of cells at S phase at 5 uM incubated for 24 hrs by flow cytometry (reference value: 32%). The series is classed as functional.
For series [9], the target named is Serine/threonine-protein kinase SIK2 (Homo sapiens) (UniProt Q9H0K1). The experiment in a line: Inhibition of SIK2 in human SK-OV-3 cells assessed as upregulation of cyclin A expression level at 5 uM incubated for 48 hrs by Western blotting analysis. The series is classed as cell-based.
For series [10], the system named is HCT-116. The experiment in a line: Cytotoxicity against human HCT-116 cells assessed as decrease in cell viability at 10 uM incubated for 24 hrs by Hoechst-33342 staining high-content imaging analysis. The series is classed as toxicity, cell-based. As to conditions: hct-116, 24 h.

Sequence of Serine/threonine-protein kinase SIK2 (Homo sapiens) (Q9H0K1 whole entry, looked up): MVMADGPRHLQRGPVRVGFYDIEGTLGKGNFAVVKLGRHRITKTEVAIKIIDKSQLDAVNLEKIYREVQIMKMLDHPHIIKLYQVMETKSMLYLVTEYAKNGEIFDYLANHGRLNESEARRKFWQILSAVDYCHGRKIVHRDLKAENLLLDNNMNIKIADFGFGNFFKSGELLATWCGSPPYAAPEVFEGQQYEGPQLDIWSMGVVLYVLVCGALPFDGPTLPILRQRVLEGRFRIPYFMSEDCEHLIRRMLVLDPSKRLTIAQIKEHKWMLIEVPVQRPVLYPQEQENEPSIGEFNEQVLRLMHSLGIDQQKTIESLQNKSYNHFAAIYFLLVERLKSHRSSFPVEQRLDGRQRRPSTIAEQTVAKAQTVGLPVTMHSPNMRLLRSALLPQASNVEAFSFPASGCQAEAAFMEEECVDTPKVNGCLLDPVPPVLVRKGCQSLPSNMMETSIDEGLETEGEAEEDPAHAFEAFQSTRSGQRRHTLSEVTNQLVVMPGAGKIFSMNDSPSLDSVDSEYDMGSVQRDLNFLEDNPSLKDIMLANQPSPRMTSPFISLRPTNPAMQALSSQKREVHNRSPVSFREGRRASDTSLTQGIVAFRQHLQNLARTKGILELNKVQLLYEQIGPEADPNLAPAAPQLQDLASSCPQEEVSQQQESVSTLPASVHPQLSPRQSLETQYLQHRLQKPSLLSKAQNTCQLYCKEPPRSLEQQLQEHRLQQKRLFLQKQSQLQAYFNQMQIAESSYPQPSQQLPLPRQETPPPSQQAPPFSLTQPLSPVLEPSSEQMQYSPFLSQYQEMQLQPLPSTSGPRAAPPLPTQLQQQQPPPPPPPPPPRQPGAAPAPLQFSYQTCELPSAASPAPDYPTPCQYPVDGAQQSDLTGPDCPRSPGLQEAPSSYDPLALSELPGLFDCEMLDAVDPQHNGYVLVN
T2 sequence (P45983 whole entry): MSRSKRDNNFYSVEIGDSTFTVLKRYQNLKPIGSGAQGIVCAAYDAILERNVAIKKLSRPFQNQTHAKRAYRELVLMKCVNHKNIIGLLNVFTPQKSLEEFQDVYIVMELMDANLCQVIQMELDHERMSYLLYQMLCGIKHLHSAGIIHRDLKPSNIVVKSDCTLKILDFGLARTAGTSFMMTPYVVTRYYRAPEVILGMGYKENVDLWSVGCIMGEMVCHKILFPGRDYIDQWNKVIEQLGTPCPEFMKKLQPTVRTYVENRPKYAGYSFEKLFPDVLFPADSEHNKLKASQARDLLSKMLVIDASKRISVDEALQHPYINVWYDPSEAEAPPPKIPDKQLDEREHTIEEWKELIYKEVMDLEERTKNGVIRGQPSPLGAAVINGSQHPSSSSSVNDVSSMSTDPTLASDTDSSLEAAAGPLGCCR
Sequence of Serine/threonine-protein kinase 24 (Homo sapiens) (Q9Y6E0 whole entry, looked up): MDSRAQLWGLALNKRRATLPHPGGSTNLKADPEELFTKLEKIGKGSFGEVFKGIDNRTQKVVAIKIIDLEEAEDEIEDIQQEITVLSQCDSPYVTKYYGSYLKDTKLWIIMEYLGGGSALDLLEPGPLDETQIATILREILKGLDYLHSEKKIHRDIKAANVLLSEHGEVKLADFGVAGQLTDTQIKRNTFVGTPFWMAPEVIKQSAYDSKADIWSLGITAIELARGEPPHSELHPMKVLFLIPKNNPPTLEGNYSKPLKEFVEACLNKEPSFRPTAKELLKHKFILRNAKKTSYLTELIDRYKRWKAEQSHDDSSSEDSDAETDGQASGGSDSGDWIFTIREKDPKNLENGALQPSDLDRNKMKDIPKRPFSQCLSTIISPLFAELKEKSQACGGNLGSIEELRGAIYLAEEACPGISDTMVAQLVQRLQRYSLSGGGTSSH
Sequence of Tyrosine-protein kinase ABL1 (P00519 whole entry, the tested form may be a part): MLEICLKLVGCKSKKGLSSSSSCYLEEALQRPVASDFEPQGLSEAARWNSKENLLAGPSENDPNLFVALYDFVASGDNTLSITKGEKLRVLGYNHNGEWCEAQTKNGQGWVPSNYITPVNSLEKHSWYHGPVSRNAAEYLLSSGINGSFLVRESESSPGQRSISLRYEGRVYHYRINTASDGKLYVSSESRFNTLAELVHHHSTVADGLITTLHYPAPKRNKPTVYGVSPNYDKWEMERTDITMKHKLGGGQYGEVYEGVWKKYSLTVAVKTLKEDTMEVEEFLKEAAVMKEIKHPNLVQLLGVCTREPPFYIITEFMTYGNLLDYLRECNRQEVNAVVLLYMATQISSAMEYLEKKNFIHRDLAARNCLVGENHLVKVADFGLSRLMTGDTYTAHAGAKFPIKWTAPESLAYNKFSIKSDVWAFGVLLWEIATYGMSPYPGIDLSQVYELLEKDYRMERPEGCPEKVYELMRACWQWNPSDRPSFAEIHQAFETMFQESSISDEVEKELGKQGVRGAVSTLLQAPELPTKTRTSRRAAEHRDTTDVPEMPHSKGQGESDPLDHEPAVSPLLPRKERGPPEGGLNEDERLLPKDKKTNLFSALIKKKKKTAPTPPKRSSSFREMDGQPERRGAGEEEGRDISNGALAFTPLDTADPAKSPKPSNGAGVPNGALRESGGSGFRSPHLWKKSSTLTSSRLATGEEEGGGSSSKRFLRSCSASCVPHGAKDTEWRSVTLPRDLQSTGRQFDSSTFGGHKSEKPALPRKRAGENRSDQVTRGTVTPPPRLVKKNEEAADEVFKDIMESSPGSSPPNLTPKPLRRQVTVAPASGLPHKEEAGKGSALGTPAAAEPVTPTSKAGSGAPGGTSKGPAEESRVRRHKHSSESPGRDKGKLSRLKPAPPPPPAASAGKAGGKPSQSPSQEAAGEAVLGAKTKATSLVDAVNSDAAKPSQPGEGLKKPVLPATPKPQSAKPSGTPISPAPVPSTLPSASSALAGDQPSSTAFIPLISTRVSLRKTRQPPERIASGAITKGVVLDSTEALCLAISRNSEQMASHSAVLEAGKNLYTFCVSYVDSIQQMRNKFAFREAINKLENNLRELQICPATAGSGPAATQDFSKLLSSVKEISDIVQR
Sequence of Ephrin type-B receptor 3 (Homo sapiens) (P54753 whole entry, the tested form may be a part): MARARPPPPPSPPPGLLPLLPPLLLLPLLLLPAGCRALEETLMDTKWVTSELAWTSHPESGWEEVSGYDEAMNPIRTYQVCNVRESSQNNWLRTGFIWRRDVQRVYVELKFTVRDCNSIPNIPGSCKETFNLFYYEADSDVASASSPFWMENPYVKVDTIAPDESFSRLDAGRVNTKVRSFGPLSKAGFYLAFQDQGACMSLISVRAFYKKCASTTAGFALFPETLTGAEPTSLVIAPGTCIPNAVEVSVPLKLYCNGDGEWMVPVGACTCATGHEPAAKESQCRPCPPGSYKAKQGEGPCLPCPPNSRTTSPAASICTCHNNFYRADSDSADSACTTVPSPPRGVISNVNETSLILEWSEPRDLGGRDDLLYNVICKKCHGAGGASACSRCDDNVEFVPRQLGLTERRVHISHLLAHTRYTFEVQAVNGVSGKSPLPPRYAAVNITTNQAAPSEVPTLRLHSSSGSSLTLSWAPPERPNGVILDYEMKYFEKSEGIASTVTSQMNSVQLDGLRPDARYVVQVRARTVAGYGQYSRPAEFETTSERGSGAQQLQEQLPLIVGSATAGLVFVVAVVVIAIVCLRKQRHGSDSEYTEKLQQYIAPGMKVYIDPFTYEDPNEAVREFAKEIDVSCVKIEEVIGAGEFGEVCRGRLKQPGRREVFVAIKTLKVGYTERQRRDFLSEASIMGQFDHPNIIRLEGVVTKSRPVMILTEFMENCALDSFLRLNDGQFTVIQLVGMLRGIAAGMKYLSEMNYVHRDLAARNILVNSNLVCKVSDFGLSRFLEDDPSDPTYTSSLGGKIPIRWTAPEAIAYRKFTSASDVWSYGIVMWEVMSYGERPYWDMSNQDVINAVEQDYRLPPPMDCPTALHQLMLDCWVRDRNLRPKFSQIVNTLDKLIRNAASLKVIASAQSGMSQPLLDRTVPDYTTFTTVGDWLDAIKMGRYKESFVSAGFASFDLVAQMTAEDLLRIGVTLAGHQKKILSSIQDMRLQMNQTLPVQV

What is called ΔTm is the shift of the melting midpoint relative to a reference. By pIC50 is commonly meant the IC50 on a negative log10 scale, so that one unit is a factor of ten. Take `CNc1ncc2cc(-c3cc(F)ccc3F)c(=O)n(CCCCN)c2n1`: the ΔTm in series [1] was found to be 0.9 °C; in series [2], 1.5 °C; in series [3], 7.3 °C; in [4] it was 5.6 °C. Besides, the pIC50 was 4.55 in [5] and 4.63 in series [6]. In series [7], the inhibition entry is “Dose-Dependent Effect”. The Activity is listed as 19% in series [8] and “Toxic” in [10]. For the same compound, in [9], the inhibition result is “Active”.

Values taken from ChEMBL document CHEMBL5325437, “Shifting the selectivity of pyrido[2,3-d]pyrimidin-7(8H)-one inhibitors towards the salt-inducible kinase (SIK) subfamily” (Eur J Med Chem, 2023).
